Laboratory results reported in patent publication US20240246946A1, “MODULATORS OF TREX1” (Constellation Pharmaceuticals, Inc., priority 2021, published 2024).

Legend:
[1] = target: T1, full length human TREX1 (Homo sapiens, UniProt Q9NSU2); assay: hTREX1 Biochemical Assay (fluorescence, dsDNA substrate degradation); details: biochemical, read-out: hTREX1 IC50
T1 construct: N-terminally His-Tev tagged full length human TREX1; made in house; host or cells: E. coli
T1 sequence (Q9NSU2 1-314): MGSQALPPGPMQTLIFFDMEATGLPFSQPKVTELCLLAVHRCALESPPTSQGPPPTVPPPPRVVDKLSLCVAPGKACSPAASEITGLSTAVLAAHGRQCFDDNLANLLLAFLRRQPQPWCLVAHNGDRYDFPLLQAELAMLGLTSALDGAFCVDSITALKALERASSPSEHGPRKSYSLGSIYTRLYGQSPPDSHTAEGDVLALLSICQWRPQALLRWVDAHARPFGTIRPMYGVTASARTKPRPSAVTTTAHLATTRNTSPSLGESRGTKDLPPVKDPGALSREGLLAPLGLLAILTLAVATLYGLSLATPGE
Summary of the method: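 Fluorescence rises as enzyme degrades a quenched TEX615-labelled dsDNA substrate (60 nM) in 50 mM Tris, 150 mM NaCl, 5 mM MgCl2, pH 7.4. Full-length His-Tev-tagged human TREX1, 4 pM, sits with compound 4 hours at 25° C before substrate; reaction 18 hours, stopped with EDTA.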

[2] = target: T2, full length mouse TREX1 (Mus musculus, UniProt Q91XB0); assay: mTREX1 Biochemical Assay (fluorescence, dsDNA substrate degradation); details: biochemical, read-out: mTREX1 IC50
T2 construct: N-terminally His-Tev tagged full length mouse TREX1; made in house; host or cells: E. coli
T2 sequence (Q91XB0 1-314): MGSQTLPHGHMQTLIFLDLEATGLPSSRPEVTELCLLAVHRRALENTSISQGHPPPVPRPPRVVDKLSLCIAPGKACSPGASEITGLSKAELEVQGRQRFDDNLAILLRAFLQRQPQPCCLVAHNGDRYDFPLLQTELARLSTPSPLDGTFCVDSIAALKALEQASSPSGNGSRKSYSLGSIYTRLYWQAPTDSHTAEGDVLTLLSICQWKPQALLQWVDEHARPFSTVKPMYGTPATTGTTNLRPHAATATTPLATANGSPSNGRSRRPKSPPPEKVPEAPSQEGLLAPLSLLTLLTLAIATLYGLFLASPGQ
Summary of the method: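 Reaction run 18 h at 25° C. with 60 nM TEX615/quencher-labelled dsDNA and 6 pM mouse TREX1 in Tris buffer (pH 7.4, 5 mM MgCl2, 1.0% DMSO), enzyme having sat 4 h with compound across 10 concentrations. EDTA quench; substrate degradation measured as fluorescence increase.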

[3] = target: T3, human TREX2 (residues M44-A279) (Homo sapiens, UniProt Q9BQ50); assay: hTREX2 Biochemical Assay (fluorescence, dsDNA substrate degradation); details: biochemical selectivity for hTREX1 vs hTREX2
T3 construct: human TREX2 (residues M44-A279, expressed in E. coli); made in house; host or cells: E. coli
T3 sequence (Q9BQ50 44-279 isoform Q9BQ50-1): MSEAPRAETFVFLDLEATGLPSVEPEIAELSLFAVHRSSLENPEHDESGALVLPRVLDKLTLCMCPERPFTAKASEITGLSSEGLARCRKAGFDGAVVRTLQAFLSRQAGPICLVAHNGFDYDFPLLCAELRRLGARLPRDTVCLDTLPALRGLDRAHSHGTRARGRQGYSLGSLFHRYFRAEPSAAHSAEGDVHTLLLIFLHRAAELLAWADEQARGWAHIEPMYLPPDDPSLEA
Summary of the method: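 Fluorogenic dsDNA degradation read at 615 nm (570 nm excitation) after EDTA quench. Final 60 nM substrate, 50 pM His-Tev-tagged enzyme, 5 mM MgCl2, pH 7.4, 1.0% DMSO; 4 h compound–enzyme preincubation then 18 h reaction, both 25 °C; 10-point titration.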

[4] = target: T4, hTREX1 (Homo sapiens, UniProt Q9NSU2); assay: hTREX1 HCT116 Cell Assay (HCT116 dual cells, Lucia luciferase reporter of Type I interferon induction); type: cell-based; details: TREX1i 4 h before pBR322/BstNI transfection, read after 48 h
T4 construct: host or cells: HCT116 dual cells
T4 sequence (Q9NSU2 1-314): T1 sequence (Q9NSU2 1-314)
Summary of the method: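 Type I interferon induction read as secreted Lucia luciferase 48 h after transfecting pBR322/BstNI digest (1 ug/mL, 100 ng/well) into HCT116 dual reporter cells. Compound added 4 h before transfection at up to 0.1% DMSO; cells in DMEM/10% FBS/25 mM HEPES at 37 °C.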

Compound | IC50 [1] [nM] | IC50 [2] [nM] | hTREX1 vs hTREX2 selectivity [3] | IC50 [4] [nM]
COCCn1cc(C(c2cc(F)ccc2C#N)C(C)c2nc(C(=O)Nc3cnoc3)c(O)c(=O)n2C)c(C)n1 (single isomer, unassigned) [Example 103 D1E1] | > 10 | > 10 | A (A = <25 fold selective for hTREX1) | > 100
COCCn1cc(C(c2cc(F)ccc2C#N)C(C)c2nc(C(=O)Nc3cnoc3)c(O)c(=O)n2C)c(C)n1 (single isomer, unassigned) [Example 103 D1E2] | < 1 | < 1 | C (C = >50 fold selective for hTREX1) | 10 to 100
COCCn1cc(C(c2cc(F)ccc2C#N)C(C)c2nc(C(=O)Nc3cnoc3)c(O)c(=O)n2C)c(C)n1 (single isomer, unassigned) [Example 103 D2E1] | 1 to 10 | > 10 | A (A = <25 fold selective for hTREX1) | > 100
COCCn1ncc(C(c2cc(F)ccc2C#N)C(C)c2nc(C(=O)Nc3cnoc3)c(O)c(=O)n2C)c1C (single isomer, unassigned) [Example 104 D1E1] | 1 to 10 | 1 to 10 | B (B = 25 to 50-fold selective for hTREX1) | > 100
CC(c1nc(C(=O)Nc2cnoc2)c(O)c(=O)n1C)C(c1cnn(C(C)C)c1)c1ccccc1C#N (single isomer, unassigned) [Example 105 D2E1] | 1 to 10 | > 10 | A (A = <25 fold selective for hTREX1) | > 100
CC(c1nc(C(=O)Nc2cnoc2)c(O)c(=O)n1C)C(c1cnn(C2COC2)c1)c1ccccc1C#N (single isomer, unassigned) [Example 106 D1E1] | < 1 | 1 to 10 | B (B = 25 to 50-fold selective for hTREX1) | 10 to 100
COCCn1ncc(C(c2cc(F)ccc2Cl)C(C)c2nc(C(=O)Nc3cnoc3)c(O)c(=O)n2C)c1C (single isomer, unassigned) [Example 108 D1E1] | 1 to 10 | > 10 | A (A = <25 fold selective for hTREX1) | > 100
COCCn1ncc(C(c2cc(F)ccc2Cl)C(C)c2nc(C(=O)Nc3cnoc3)c(O)c(=O)n2C)c1C (single isomer, unassigned) [Example 108 D2E1] | 1 to 10 | > 10 | A (A = <25 fold selective for hTREX1) | 10 to 100
Cc1nn(C)c(C)c1C(c1cc(F)ccc1C#N)C(C)c1nc(C(=O)Nc2cnoc2)c(O)c(=O)n1C (single isomer, unassigned) [Example 109 D1E1] | < 1 | 1 to 10 | B (B = 25 to 50-fold selective for hTREX1) | 10 to 100
COCCn1nc(C)c(C(c2cc(F)ccc2C#N)C(C)c2nc(C(=O)Nc3cnoc3)c(O)c(=O)n2C)c1C (single isomer, unassigned) [Example 110 D1E1] | < 1 | 1 to 10 | C (C = >50 fold selective for hTREX1) | > 100
Cc1cc(C(c2cc(F)ccc2C#N)C(C)c2nc(C(=O)Nc3cnoc3)c(O)c(=O)n2C)n(C)n1 (single isomer, unassigned) [Example 111 D2E1] | < 1 | > 10 | C (C = >50 fold selective for hTREX1) | > 100
Cc1cc(C(c2cc(F)ccc2C#N)C(C)c2nc(C(=O)Nc3cnoc3)c(O)c(=O)n2C)nn1C (single isomer, unassigned) [Example 112 D1E1] | < 1 | 1 to 10 | C (C = >50 fold selective for hTREX1) | 10 to 100
